Paper PMC8571282 (Nature Communications, 2021)
Values joined by “and” are separate entries in the source; they are usually repeats but may differ in a detail not shown here. Equal values may be shown once.

Columns and labels:
[1] = in vitro; conditions: human, % cell viability
[2] = in vitro; conditions: female, human, % cell viability, DF2 HAE, 33.333 µM, 72 h
[3] = test system: HEp-2 cells; experiment: Cytotoxicity assay (PrestoBlue), HEp-2; conditions: 72 h
[4] = test system: “F2” primary HAE cells; experiment: Cytotoxicity assay (PrestoBlue), “F2” HAE; conditions: 72 h; for % cell viability: F2 HAE
[5] = in vitro; conditions: human, % cell viability; remark: listed apart in the source
[6] = in vitro; conditions: human, % cell viability, M2 HAE, 72 h
[7] = in vitro; conditions: human, 72 h
[8] = female, ferret, in vivo, iv
[9] = in vitro; conditions: hamster
[10] = in vitro; conditions: human, % cell viability, M6 HAE, 72 h
[11] = in vitro; conditions: African green monkey
[12] = test system: “F3” primary HAE cells; experiment: Cytotoxicity assay (PrestoBlue), “F3” HAE; conditions: F3 HAE, 72 h
[13] = test system: SARS-CoV-2-Nluc (WA1/2020-nano luciferase); experiment: microbe, parasite or virus in culture; assay type: cell-based
[14] = in vitro; conditions: human
[15] = test system: HCT-8 cells; experiment: Cytotoxicity assay (PrestoBlue), HCT-8; conditions: HCT-8, 72 h

For CCC(CC)COC(=O)[C@H](C)N[P@](=O)(OC[C@H]1O[C@@](C#N)(c2ccc3c(N)ncnn23)[C@H](O)[C@@H]1O)Oc1ccccc1 [remdesivir], which viability at […] ([1]; female) is on record?
The viability at […] was 91%.

What about the viability at 0.046 µM ([1]; female, F3 HAE, 0.046 µM, 72 h) of the same compound?
Its viability at 0.046 µM is 75%.

And the viability at 33.333 µM ([1]; female, F3 HAE, 33.333 µM, 72 h)?
The viability at 33.333 µM was 84%.

What about the viability at 100 µM ([1]; F3 HAE, 100 µM, 72 h) of the same compound?
The viability at 100 µM was 51%.

What about the viability at 33.333 µM [2] of the same compound?
The viability at 33.333 µM was 86%.

What about the “% cell viability” value ([3]; HEp-2, 0.046 µM, 0.046 µM) of the same compound?
The value was 45% and 47% and 73%.

And the “% cell viability” value ([3]; HEp-2, 1.235 µM, 1.235 µM)?
Its value is 86% and 94%.

What about the “% cell viability” value ([3]; HEp-2, 3.704 µM, 3.704 µM) of the same compound?
Its value is 96%.

And the “% cell viability” value ([3]; HEp-2, 33.333 µM, 33.333 µM)?
The value was 51% and 66%.

And the “% cell viability” value ([3]; HEp-2, 100 µM, 100 µM)?
The value was 24%.

What about the “% cell viability” value ([4]; 0.046 µM) of the same compound?
Its value is 85% and 82%.

What about the “% cell viability” value ([4]; 33.333 µM) of the same compound?
The value was 77% and 71%.

And the “% cell viability” value ([4]; 100 µM)?
Its value is 47%.

What about the CC50 ([4]; “F2” HAE) of the same compound?
The CC50 was 85.5 µM.

What about the viability at […] [5] of the same compound?
Its viability at […] is 89%.

What about the viability at 1.235 µM ([5]; HEp-2, 1.235 µM, 72 h) of the same compound?
Its viability at 1.235 µM is 83%.

What about the viability at 33.333 µM ([5]; HEp-2, 33.333 µM, 72 h) of the same compound?
The viability at 33.333 µM was 64%.

What about the viability at 100 µM ([5]; HEp-2, 100 µM, 72 h) of the same compound?
Its viability at 100 µM is 31%.

And the viability at 100 µM ([6]; 100 µM)?
Its viability at 100 µM is 56%.

What about the viability at 0.046 µM ([6]; male, 0.046 µM) of the same compound?
The viability at 0.046 µM was 85%.

And the viability at 0.046 µM ([7]; female, % cell viability, F2 HAE, 0.046 µM)?
Its viability at 0.046 µM is 81%.

What about the viability at 33.333 µM ([7]; female, % cell viability, F2 HAE, 33.333 µM) of the same compound?
The viability at 33.333 µM was 72%.

And the viability at 100 µM ([7]; % cell viability, F2 HAE, 100 µM)?
Its viability at 100 µM is 46%.

What about the CC50 ([7]; CC50, “F2” HAE) of the same compound?
Its CC50 is 85.5 µM.

What about the “lung GS-443902” value [8] of the same compound?
The value was 1.28 nmol/g.

And the lung total nuc [8]?
The lung total nuc was 2.96 nmol/g.

And the CC50 [9]?
Its CC50 is over 100 µM.

What about the viability at 1.235 µM ([9]; % cell viability, BHK-21, 1.235 µM, 72 h) of the same compound?
The viability at 1.235 µM was 87%.

What about the viability at 3.704 µM ([9]; % cell viability, BHK-21, 3.704 µM, 72 h) of the same compound?
Its viability at 3.704 µM is 93%.

And the viability at 100 µM ([10]; 100 µM)?
Its viability at 100 µM is 89%.

What about the viability at 0.046 µM ([10]; male, 0.046 µM) of the same compound?
Its viability at 0.046 µM is 90%.

And the viability at 1.235 µM ([10]; male, 1.235 µM)?
Its viability at 1.235 µM is 87%.

And the viability at 33.333 µM ([10]; male, 33.333 µM)?
The viability at 33.333 µM was 96%.

What about the CC50 [11] of the same compound?
The CC50 was over 100 µM.

And the viability at […] ([11]; % cell viability)?
The viability at […] was 79%.

And the viability at 3.704 µM ([11]; % cell viability, VeroE6, 3.704 µM, 72 h)?
Its viability at 3.704 µM is 92%.

And the “% cell viability” value ([12]; 0.046 µM)?
The value was 76% and 79%.

What about the “% cell viability” value ([12]; 33.333 µM) of the same compound?
The value was 88% and 89%.

And the “% cell viability” value ([12]; 100 µM)?
The value was 52% and 54%.

And the “A549-hACE2 SARS-CoV-2 Nluc (EC50 determination), normalized signal” value ([13]; Conc 0.005 µM, replicate values of the experiments)?
The value was 78.71 and 115.29 and 114.83 and 141.39 and 91.95 and 93.98 and 92.17 and 82.76 and 114.48 and 78.49 and 78.52 and 118.54.

What about the EC50 ([13]; Severe acute respiratory syndrome coronavirus 2, WA1/2020-nano luciferase, A549-ACE2, mean ± SD) of the same compound?
The EC50 was 80 nM.

What about the viability at 0.046 µM ([14]; % cell viability, HCT-8, 0.046 µM, 72 h) of the same compound?
Its viability at 0.046 µM is 76%.

What about the viability at 33.333 µM ([14]; % cell viability, HCT-8, 33.333 µM, 72 h) of the same compound?
Its viability at 33.333 µM is 51%.

What about the viability at 100 µM ([14]; % cell viability, HCT-8, 100 µM, 72 h) of the same compound?
The viability at 100 µM was 15%.

What about the CC50 ([14]; CC50, HCT-8, 72 h) of the same compound?
Its CC50 is 36.4 µM.

What about the CC50 [15] of the same compound?
The CC50 was 36.4 µM.
